Like-named read-outs stand apart in the source and are kept apart here.
Experiments:
Assay type in all cases: cell-based
Fusarium verticilloides = experiment: In vitro fungitoxic activity, 48-well PDA outgrowth, curative (Example 2); conditions: 168 h, fungicide alone, 7 days at room temperature
Method: (§1) All the experiments were done in the same way. In 48-well plates, each well was filled with a volume of 180 μL of the ITC, the fungicide or a combination of both at various concentrations and filled with 180 μL of Potato Dextrose Agar (PDA). Two or three wells were used per concentration for better accuracy. After solidification of the well a plug of 2×2 mm of grown fungi was placed in each well, and the 48-well plate was sealed with parafilm. After 7 days of incubation at room temperature, the fungal outgrowth was measured and the EC50 was calculated with a 4-parameter logistic regression in XLSTAT.
(§2) Afterward, a concentration of the fungicides at which the fungi is not growing (i.e. […] the EC50) was determined. Applicants repeated the 48-well experiment by filling the well with a mixture of the ITC and the fungicides; the fungicide concentration was kept constant at the determined concentration mentioned above and the ITC concentration was varied. As before, the fungal outgrowth was measured after 7 days of incubation. To calculate the synergistic properties of the combo ITC+fungicides, the Combination Index (CI) described by Chou (2006) was calculated using the CompuSyn software.

Rhizoctonia solani [1] = experiment: In vitro fungitoxic activity, 48-well PDA outgrowth, curative; conditions: 168 h, fungicide alone, 7 days at 20° C.
Method: (§3) All the experiments were done in the same way, with small differences between curative and preventive cases. In 48-well plates, each well was filled with a volume of 180 μL of the ITC, the fungicide or a combination of both at various concentrations and filled with 180 μL of Potato Dextrose Agar (PDA). Three wells were used per concentration for better accuracy. After solidification of the well, either a plug of 2×2 mm of grown fungi (curative case) or 20 μL of a spore solution (˜1E5 spores/mL, preventive case) was placed in each well, and the 48-well plate was sealed with parafilm. After 7 days of incubation at 20° C. in a controlled growth chamber, the fungal outgrowth was measured and the EC50 was calculated with a 4-parameter logistic regression in XLSTAT.
as §2, with “ITO” for “ITC”, “ITO+fungicides,” for “ITC+fungicides,”

Colletotrichum acutatum = experiment: In vitro fungitoxic activity, 48-well PDA outgrowth, curative (Example 2); conditions: 168 h, fungicide alone, 7 days at room temperature
Method: as §1, §2

Rhizoctonia solani [2] = experiment: In vitro fungitoxic activity, 48-well PDA outgrowth, preventive (spore solution); conditions: 168 h, fungicide alone, 7 days at 20° C.
Method: as §3
as §2, with “ITO” for “ITC”, “ITO+fungicides,” for “ITC+fungicides,”

[3] = test system: Lasiodiplodia pseudotheobromae; experiment: In vitro fungitoxic activity, 48-well PDA outgrowth, curative (Example 2); conditions: 168 h, read-out: EC50 fungicide
Method: as §1, §2

Geotrichum candidum [4] = experiment: In vitro fungitoxic activity, 48-well PDA outgrowth, curative; conditions: 168 h, read-out: EC50 fungicide
Method: as §3
as §2, with “ITO” for “ITC”, “ITO+fungicides,” for “ITC+fungicides,”

Penicillium digitatum = experiment: as above; conditions: 168 h, read-out: EC50 fungicide
Method: as §3
as §2, with “ITO” for “ITC”, “ITO+fungicides,” for “ITC+fungicides,”

Alternaria radicina = experiment: as above; conditions: 168 h, read-out: EC50 fungicide
Method: as §3
as §2, with “ITO” for “ITC”, “ITO+fungicides,” for “ITC+fungicides,”

Botrytis cinerea = experiment: as above; conditions: 168 h, read-out: EC50 fungicide
Method: as §3
as §2, with “ITO” for “ITC”, “ITO+fungicides,” for “ITC+fungicides,”

[5] = test system: Plectosphaerella cucumerina; experiment: In vitro fungitoxic activity, 48-well PDA outgrowth, curative (Example 2); conditions: 168 h, read-out: EC50 fungicide
Method: as §1, §2

Penicillium commune = experiment: as above; conditions: 168 h, fungicide alone, 7 days at room temperature
Method: as §1, §2

Geotrichum candidum [6] = experiment: In vitro fungitoxic activity, 48-well PDA outgrowth, preventive (spore solution); conditions: 168 h, fungicide alone, 7 days at 20° C.
Method: as §3
as §2, with “ITO” for “ITC”, “ITO+fungicides,” for “ITC+fungicides,”

[7] = fungicide alone, curative, 7 days at room temperature
[8] = fungicide alone, curative, 7 days at 20° C.

How did the EC50 (Fusarium verticilloides) turn out when `O=C1C2CC=CCC2C(=O)N1SC(Cl)(Cl)Cl` (stereo not shown) [Captan] was run?
The EC50 was 424 µM.

What does the source list for `N#Cc1c(Cl)c(Cl)c(Cl)c(C#N)c1Cl` [Chlorothalonil]?
EC50 (Rhizoctonia solani [1]): 29 µM; EC50 (Colletotrichum acutatum): 52 µM; EC50 (Rhizoctonia solani [2]): 2000 nM

With `Cc1cc(C2CC2)nc(Nc2ccccc2)n1` [Cyprodinil] as the molecule, how does the EC50 [3, 7] read?
Its EC50 is 9 µM.

Which EC50 (Geotrichum candidum [4]) does the source give for `CCCCCCCCCCCCNC(=N)N` [Dodine] here?
The EC50 was 156 µM.

And the EC50 (Penicillium digitatum)?
The EC50 was 92 µM.

What about the EC50 (Alternaria radicina) of the same molecule?
Its EC50 is 110 µM.

And the EC50 (Botrytis cinerea)?
Its EC50 is 189 µM.

What about the EC50 [3] of the same molecule?
The EC50 was 476 µM.

What about the EC50 [5] of the same molecule?
The EC50 was 93 µM.

`N#Cc1c[nH]cc1-c1cccc2c1OC(F)(F)O2` [Fludioxonil] was tested. Which EC50 [3] did it give?
Its EC50 is 1 µM.

Which EC50 (Rhizoctonia solani [1]) does the source give for `Cc1cc(C)nc(Nc2ccccc2)n1` [Pyrimethanil] here?
Its EC50 is 28 µM.

And the EC50 (Alternaria radicina; [8])?
The EC50 was 3 µM.

Which EC50 (Rhizoctonia solani [1]) does the source give for `CC(C)(C)C(O)(CCc1ccc(Cl)cc1)Cn1cncn1` (stereo not shown) [Tebuconazole] here?
The EC50 was 18 µM.

And the EC50 (Geotrichum candidum [4]; [8])?
Its EC50 is 27 µM.

And the EC50 (Penicillium digitatum; [8])?
Its EC50 is 1 µM.

What about the EC50 (Alternaria radicina; [8]) of the same molecule?
The EC50 was 30 µM.

What about the EC50 (Penicillium commune) of the same molecule?
The EC50 was 179 µM.

And the EC50 (Fusarium verticilloides)?
The EC50 was 6 µM.

What about the EC50 [3, 7] of the same molecule?
The EC50 was 300 µM.

And the EC50 (Geotrichum candidum [6])?
Its EC50 is 25 µM.

Source: patent publication US20240349727A1, “SYNERGY BETWEEN MIXTURES OF ISOTHIOCYANATES AND COMMERCIAL FUNGICIDES” (priority 2021, published 2024)
